Measurements reported in BindingDB's records for doi:10.1021/jm030795v (Wroclaw University of Technology, 2003).
Structures can show the parent of a compound that is named as a salt.

Molecular target: Cytosol aminopeptidase (Sus scrofa)
Test: Binding affinity for cytosolic leucine aminopeptidase (LAP) from porcine kidney

Structure (SMILES)	Ki [µM]
CC(C)CC(N)C=O (stereo not drawn) [2-Amino-4-methyl-pentanal]	0.06
CC(C)CC(OP(=O)(O)C(N)CC(C)C)C(=O)O (stereo not drawn) [2-[(1-Amino-3-methyl-butyl)-hydroxy-phosphinoyloxy]-4-methyl-pentanoic acid]	58
CC(C)CC(O)P(=O)(O)NCC(=O)O (stereo not drawn) [{[hydroxy(1-hydroxy-3-methylbutyl)phosphoryl]amino}acetic acid; dilithium salt]	4.88
